Measurements as given in ChEMBL document CHEMBL1201862, “PubChem BioAssay data set” (2004).
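In this assay, cells in 96-well plates receive the compound at five concentrations for 48 hours. Endpoints are linearly interpolated between the surrounding concentrations. Here, GI50 denotes the concentration required for 50% inhibition of growth.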 The source made the active and inactive calls. Cut-off read from the data, not from the text of the source: active = GI50 up to about 1.1 µM and inactive = higher. *1 amine or outer side, *2 acyl side, *3 side chain or, on linkers, in order; H or OH if unused. Where a SMILES comes first, the peptide text is derived from it. Bridges are numbered along the chain shown (N, C = ends). [ ]: non-standard residue; d: D form. X36 = CC[C@H](C)[C@@H](N[*:1])[C@@H](O)CC(=O)O[C@H](C(=O)[C@H](C)C(=O)[*:2])C(C)C; NMeY = CN[C@@H](Cc1ccc(O)cc1)C(=O)O

Legend:
Assay in all cases: inhibition of tumour cell growth, NCI panel, 48 h
[1] = system: A549
[2] = system: HCT-15
[3] = system: HOP-92
[4] = system: K562
[5] = system: KM12
[6] = system: OVCAR-5
[7] = system: RXF 393
[8] = system: SF-539
[9] = system: SK-MEL-28
[10] = system: SK-MEL-2
[11] = system: SK-OV-3
[12] = system: SNB-75
[13] = system: SW-620
[14] = system: UACC-257
[15] = system: UO-31
[16] = system: CAKI-1
[17] = system: HL-60
[18] = system: M14

Measured: GI50

CCC(CO)Nc1nc2c(c(=O)n(C)c(=O)n2C)n1CCO (stereo unspecified)
inactive: [1] > 100 µM | [3] > 100 µM | [4] > 100 µM | [5] > 100 µM | [6] > 100 µM | [7] > 100 µM | [8] > 100 µM | [9] > 100 µM | [10] > 100 µM | [11] > 100 µM | [12] 48.9 µM | [13] > 100 µM | [14] > 100 µM | [15] > 100 µM
> 100 µM: [2]

CN(C)CC(C)(C)C(=O)/C=C/c1ccc(/C=C/C(=O)C(C)(C)CN(C)C)cc1
0.605 µM: [2]
inactive: [1] 2.79 µM | [16] 1.42 µM | [17] 1.61 µM | [5] 1.85 µM | [18] 1.62 µM | [6] 1.82 µM | [7] 1.17 µM | [8] 2.13 µM | [9] 1.87 µM | [11] 2.81 µM | [12] 1.58 µM | [14] 2.09 µM | [15] 1.99 µM
active: [3] 0.682 µM | [4] 0.202 µM | [13] 0.706 µM

O=C1C[C@@H]2[C@@H](CCC23CC3)N1
inactive: [1] > 100 µM | [16] > 100 µM | [17] > 100 µM | [4] > 100 µM | [5] > 100 µM | [18] > 100 µM | [6] > 100 µM | [7] > 100 µM | [8] > 100 µM | [9] > 100 µM | [10] > 100 µM | [11] > 100 µM | [12] > 100 µM | [13] > 100 µM | [14] > 100 µM | [15] > 100 µM

C=CCn1c(=O)c(C(=O)NC(=O)OCC)cn(C2CCCCC2)c1=O
> 100 µM: [2]
inactive: [1] > 100 µM | [16] > 100 µM | [17] > 100 µM | [3] > 100 µM | [4] > 100 µM | [5] > 100 µM | [18] > 100 µM | [6] > 100 µM | [8] > 100 µM | [9] > 100 µM | [10] > 100 µM | [11] > 100 µM | [12] > 100 µM | [13] > 100 µM | [14] > 100 µM | [15] > 100 µM

Cc1ccc(C[P+]2(c3ccccc3)CCCCC2)cc1.[O-][Cl+3]([O-])([O-])[O-]
51.6 µM: [2]
inactive: [1] 73.5 µM | [17] 10.8 µM | [4] 34.8 µM | [5] 28.5 µM | [18] 25.8 µM | [6] 55.2 µM | [7] > 100 µM | [8] 25 µM | [9] 27.7 µM | [10] 30.9 µM | [11] 60.8 µM | [12] 24.4 µM | [13] 33.3 µM | [14] 6.28 µM | [15] > 100 µM

Cc1nc2ccc(N)cc2nc1O
> 100 µM: [2]
inactive: [1] > 100 µM | [16] > 100 µM | [17] > 100 µM | [3] 5.89 µM | [4] > 100 µM | [5] > 100 µM | [18] > 100 µM | [6] > 100 µM | [8] > 100 µM | [10] > 100 µM | [11] > 100 µM | [13] > 100 µM | [14] > 100 µM | [15] > 100 µM

CC[C@H](C)[C@H]1NC(=O)[C@@H](N)[C@@H](C)OC(=O)[C@H](Cc2ccc(OC)cc2)N(C)C(=O)[C@@H]2CCCN2C(=O)[C@H](CC(C)C)NC(=O)[C@@H](C)C(=O)[C@H](C(C)C)OC(=O)C[C@@H]1O (H-T[X36]LP[NMeY](Me); ester 1-C)
36.7 µM: [2]
inactive: [1] 19.3 µM | [17] 11.7 µM | [4] 18.4 µM | [5] 9.35 µM | [18] 4.84 µM | [6] 31.5 µM | [7] 8.13 µM | [8] 26.8 µM | [9] 16.8 µM | [10] 46 µM | [11] 35.6 µM | [12] 13.2 µM | [13] 19.5 µM | [14] 15.6 µM | [15] 6.62 µM

NC(=O)C1C(=O)Oc2cccnc21 (stereo unspecified)
inactive: [1] > 100 µM | [4] > 100 µM | [5] > 100 µM | [18] > 100 µM | [7] > 100 µM | [8] > 100 µM | [9] > 100 µM | [11] > 100 µM | [12] 17.8 µM | [13] 83 µM | [14] 89.9 µM | [15] 99.8 µM
> 100 µM: [2]

Cc1ccc(N2C(=O)CS/C2=C(\C#N)c2nc3ccccc3[nH]2)cc1
inactive: [1] > 100 µM | [16] > 100 µM | [17] > 100 µM | [3] > 100 µM | [4] > 100 µM | [5] > 100 µM | [18] > 100 µM | [6] > 100 µM | [8] > 100 µM | [9] > 100 µM | [10] > 100 µM | [12] > 100 µM | [13] > 100 µM | [14] > 100 µM | [15] > 100 µM
> 100 µM: [2]
